# Results from PubChem BioAssay AID2305 (GlaxoSmithKline (GSK), 2010).
# Test system: P. falciparum 3D7 growth, pLDH absorbance
# Assay: blood-stage malaria parasite growth potency – strain 3D7, dose response (AID 2305)
row,SMILES,IC50
1,O=C(Nc1ccc(C(F)(F)F)cc1)NC1CCN(CCCCCNC(=O)[C@@H]2C[C@H]2c2ccc(Cl)c(Cl)c2)CC1,630 nM
2,O=C(NCCc1ccccc1)N(Cc1cccc(-c2ccc(CNC3CCCC3)cc2)c1)C1CCN(Cc2ccccc2)CC1,400 nM
3,CCC(C)CNC(=O)CN1CN(c2ccccc2)C2(CCN(C(=O)c3ccc(Br)cc3)CC2)C1=O (configuration not stated),1070 nM
4,CCOC(=O)c1cn(CC)c2cc(O[C@H]3CCN(C(=O)OC(C)(C)C)C3)ccc2c1=O,550 nM
5,Nc1nccc2ccc(-c3ccnc(NCc4cccnc4)n3)cc12,460 nM
6,COc1cc(C(=O)Nc2nc3ccccc3[nH]2)ccc1OCC(=O)Nc1cccc(C(F)(F)F)c1,740 nM
7,CN(C)Cc1ccc(O)c(-c2ccc(C(C)(C)C)cc2)n1,1080 nM
8,CCC1=C[C@@H]2CN(C1)Cc1c([nH]c3ccccc13)[C@@](C(=O)OC)(c1cc3c(cc1OC)N(C)[C@H]1[C@@](O)(C(=O)OC)[C@H](O)[C@]4(CC)C=CCN5CC[C@]31[C@@H]54)C2,870 nM
9,COc1ccc2nccc([C@@H](O)CN3CCC(NCc4cc5cccc(O)c5[nH]4)CC3)c2c1,840 nM
10,CCNc1cc(C(=O)N[C@@H](Cc2ccccc2)[C@H](O)CNC2(CC)CC2)cc(N2CCCCS2(=O)=O)c1,1610 nM
11,CCc1c(CCNCCCCCCNCCc2ccccc2)ccc(OC)c1OC,800 nM
12,O=C1C=Cc2ccccc2/C1=C/c1sc(=NCc2ccccc2)n(Cc2ccccc2)c1O,160 nM
13,O=C(NCC1CCC(C(=O)NCCN2CCCCC2)CC1)c1ccc(O)c(-c2ccc(Cl)c(Cl)c2)c1 (configuration not stated),1170 nM
14,CN(C)CCOc1ccc(-c2cc(-c3ccncc3)c(-c3ccc(Cl)c(O)c3)o2)cc1,210 nM
15,N#Cc1ccc(C(=O)Nc2ccc(-c3cccc(CN4CCCC4)c3)cc2)cc1,1000 nM
16,COc1ccc2nccc([C@@H](O)CN3CCC(NC(=O)C(c4ccsc4)N4CCN(c5ccccc5OC)CC4)CC3)c2c1 (some centres not stated),830 nM
17,OCC(CO)(CO)NCc1ccc2c3c(cccc13)-c1ccccc1-2,1260 nM
18,Cc1ccc(F)cc1S(=O)(=O)NCC(C)c1ccc(NC(=O)Nc2cccc(F)c2)cc1 (configuration not stated),970 nM
19,O=C(/C=C/c1ccc(Cl)c(Cl)c1)NCCCCCN1CCCN(C(=O)Nc2cc(F)cc(F)c2)CC1,770 nM
20,COc1ccc2nc(C)cc(NN=Cc3ccc(F)cc3)c2c1,190 nM
21,Cc1ccc(S(=O)(=O)/N=C(\N)NC(N)=O)cc1,790 nM
22,CN(C)CCCn1c(C(=O)OC(c2ccccc2)c2ccccc2)cc2cc(OCc3ccccc3)ccc21,200 nM
23,CCNC(C)(C)CN(Cc1ccc(-c2ccc(C(F)(F)F)cc2)cc1)C(=O)Cn1c(CCc2cccc(F)c2F)nc(=O)c2ccccc21,810 nM
24,CCN(CC)CCN(Cc1ccc(-c2ccc(C(F)(F)F)cc2)cc1)C(=O)Cn1c(SCc2ccc(F)cc2)nc(=O)c2ccccc21,770 nM
25,CC(C)Cc1csc(NC(=O)C=Cc2ccco2)c1C(=O)O,300 nM

row,SMILES,IC50
1,CCN(CC)CCN(Cc1ccc(-c2ccc(C(F)(F)F)cc2)cc1)C(=O)Cn1c(CCc2cccc(F)c2F)nc(=O)c2cc(F)c(F)cc21,830 nM
2,COc1cc2nc(N3CCC(CNC(=O)c4ccc(NC(=O)c5ccc(Cl)cc5)cc4)CC3)nc(N)c2cc1OC,260 nM
3,CC(C)N1CCN(C(=O)c2ccc(CNCCCN3CCN(c4cccc(Cl)c4Cl)CC3)o2)CC1,740 nM
4,CCCCCCCc1c(C)[nH]c2cc(OC)ccc2c1=O,60 nM
5,COc1ccc(-c2nc(NC(=O)CS(=O)(=O)c3ccc(OC)cc3)sc2C)cc1,300 nM
6,COc1ccc2nccc([C@@H](O)CN3CCC(NC(=O)c4ccc(OC)c(N)c4)CC3)c2c1,710 nM
7,CCCN(CCCCCCN(CCC)CCc1ccc(O)c(O)c1)CCc1ccc(O)cc1,1010 nM
8,CCC(CC)n1cc2c(ccc3nc(N)nc(N)c32)n1,80 nM
9,C=CCOC(=O)N1CCC(CNCc2cccc(-c3ccc(-c4nc5ccc(C(F)(F)F)cc5[nH]4)cc3)c2)C1 (configuration not stated),150 nM
10,COc1ccc2ccccc2c1CNCC1CCN(CC2CCCCC2)CC1,760 nM
11,O=C(NCC1CC1)C1CCN(C(c2ccccc2)c2ccc(Cl)c(Cl)c2)CC1 (configuration not stated),370 nM
12,O=C(/C=C/c1ccc(Cl)cc1)NCCCCCN1CCC(C(=O)Nc2ccc(Cl)cc2)CC1,830 nM
13,Oc1ccc2c(c1NCC1CCCCC1)CCCC2,510 nM
14,NC(N)=NC(=O)Nc1cc(Cl)c(Cl)c(Br)c1,610 nM
15,Cc1cc(N[C@@H](CC(C)C)C(=O)Nc2ccccc2)nc(NCC2CCCCC2)n1,870 nM
16,Cc1cc2nc(-c3ccc(C(=O)NC4CCN(Cc5ccccc5)CC4)s3)[nH]c2cc1C,770 nM
17,O=C(/C=C/c1ccc(Cl)c(Cl)c1)NCCCCCN1CCC(NC(=O)Nc2ccccc2Cl)CC1,710 nM
18,CCCCNCc1ccc(-c2nc(CN(CCCn3ccnc3)C(=O)N[C@@H]3C[C@H]3c3ccccc3)cs2)cc1,740 nM
19,N#CCCN1CCN(Cc2cccc(-c3ccc(-c4nc5ccccc5[nH]4)s3)c2)CC1,760 nM
20,O=C(Nc1ccc(-c2csc(-c3nc4ccccc4[nH]3)c2)cc1)Nc1ccc(F)c(F)c1F,330 nM
21,CCc1cc(=O)[nH]c(-n2nc(C)cc2NC(=O)CC(c2ccccc2)c2ccccc2)n1,960 nM
22,CN(C)CCCNC(=O)c1ccccc1Sc1ccccc1C#N,1140 nM
23,COc1ccc(NC(=O)/C=C/c2ccccc2Cl)cc1OCCN1CCC(c2nc3ccccc3[nH]2)CC1,860 nM
24,Cc1ccc2c(Cl)c(C(=O)N3CC(C)OC(C)C3)sc2c1 (configuration not stated),180 nM
25,COc1ccc(NC(=O)c2ccc(Br)c(C)c2)cc1N1CCN(Cc2ccccc2)CC1,920 nM

row,SMILES,IC50
1,CC[C@H]1CN2CCc3cc(OC)c(OC)cc3[C@@H]2C[C@@H]1C[C@H]1NCCc2c1cc(OC)c(O)c2Cl,140 nM
2,O=[N+]([O-])c1cccc(-c2nc3ccc(C4=N[C@H]5CCCC[C@H]5N4)cc3[nH]2)c1,200 nM
3,CCNc1cc(C(=O)N[C@@H](Cc2ccccc2)[C@H](O)CNC(C)(C)Cc2ccccc2)cc(N2CCCC2=O)c1,260 nM
4,c1cncc(CCNCc2cccc(-c3ccc(-c4nc5ccccc5[nH]4)s3)c2)c1,200 nM
5,CCNC(=O)c1ccc2c(c1)c(C)c(C)n2Cc1ccc(F)cc1,770 nM
6,CSc1ccc(NC(=O)Nc2cc(C)nc3ccccc23)cc1Br,780 nM
7,CC(C)COc1ccc(Cl)cc1Cc1ccc(-c2nc3c(cnc4ccccc43)[nH]2)o1,1260 nM
8,CC(C)(C)C(=O)Oc1ccc(CC2NCCc3cc(OC(=O)C(C)(C)C)c(OC(=O)C(C)(C)C)cc32)cc1OC(=O)C(C)(C)C (configuration not stated),420 nM
9,Cc1ccc(C(=O)c2oc3ccc4c(C)cc(=O)oc4c3c2C)cc1,1030 nM
10,CCCCCN1CCC(NC(=O)c2ccc(C(=O)Nc3ccc(C(C)C)cc3)cc2)C1 (configuration not stated),950 nM
11,Cc1cc(C)c(O)c(-c2cc(C(=O)Nc3ccc(S(=O)(=O)N4CC(C)OC(C)C4)cc3)[nH]n2)c1 (configuration not stated),660 nM
12,COc1ccc(CNCc2ccc(-c3cccc(-c4nc5ccccc5[nH]4)c3)cc2)cc1,210 nM
13,NC(=O)c1ccc(C(=O)Nc2cccc(-c3csc(-c4nc5ccccc5[nH]4)c3)c2)cc1,350 nM
14,Cc1cc(N2CCCN(C)CC2)nc(Nc2ccc(Br)cc2)n1,720 nM
15,Cc1cccc2[nH]c(-c3cccc(-c4cccc(CNCCN5CCNCC5)c4)c3)nc12,970 nM
16,COc1cc(Nc2nccc(N3CCC(NC(=O)Nc4cc(C)ccc4C)C3)n2)cc(OC)c1OC (configuration not stated),1120 nM
17,CCCN(CCC)CCCN(CCCN(CCC)CCC)c1cc(C)nc(Nc2ccc(Cl)cc2)n1,170 nM
18,COc1ccc(Cl)cc1N1CCN(CCCNC(=O)c2ccc(-c3nc4cc(Cl)c(Cl)cc4[nH]3)c(C)c2)CC1,870 nM
19,COc1ccccc1CCNc1nc(C)cc(N[C@@H](Cc2ccccc2)C(=O)NCCc2ccccc2)n1,1110 nM
20,Cc1ccc(CN2CCCCC(NC(=O)c3cc4ccccc4s3)C2)cc1 (configuration not stated),900 nM
21,O=C(Cc1c(-c2ccccc2)[nH]c2ccccc12)NC1CCC(CN2CCC(c3c[nH]c4ccccc34)CC2)CC1 (configuration not stated),480 nM
22,CCC(Cc1cnc2nc(N)nc(N)c2n1)c1ccc(C(=O)O)cc1 (configuration not stated),250 nM
23,O=C(Nc1cccc(C(F)(F)F)c1)c1ccc(S(=O)(=O)NCC2CCCN2CC2CCCCC2)cc1 (configuration not stated),750 nM
24,O=C(Nc1cccc(-c2nc3ccccc3[nH]2)c1)c1ccc(-c2cccc([N+](=O)[O-])c2)o1,150 nM
25,Fc1ccc2nc(-c3cccc(-c4ccc(CN5CCC(CCN6CCCCC6)CC5)cc4)c3)[nH]c2c1,140 nM

row,SMILES,IC50
1,COc1ccc(CCN(C)CCOc2ccc(NC(=O)c3cccc4cc5ccccc5nc34)cc2)cc1OC,680 nM
2,O=C(Nc1ccc(F)cc1)NC1CCN(c2ccnc3ccccc23)C1 (configuration not stated),870 nM
3,Cc1nc2ccc3ccc(CNc4ccc(C#N)cc4)cc3c2c(=O)[nH]1,1440 nM
4,Cc1nc(/N=C(\N)NC(=O)NC2CCCCC2)nc2ccccc12,790 nM
5,COc1cccc2sc(Nc3nc(-c4ccccn4)cs3)nc12,800 nM
6,O=C(/C=C/c1ccc(Cl)c(Cl)c1)NCCCCCCN1CCCN(C(=O)Nc2ccc(Cl)c(C(F)(F)F)c2)CC1,560 nM
7,Cc1ccc(Nc2ccnc3ccc(C(F)(F)F)cc23)cc1O,960 nM
8,Cc1cc(NCC2CCN(CC3CCCCC3)C2)nc(Nc2ccc(Cl)cc2)n1 (configuration not stated),740 nM
9,O=C(Nc1cccc(-c2cccc(-c3nc4ccc(C(F)(F)F)cc4[nH]3)c2)c1)c1ccncc1,200 nM
10,O=C(CN1CCCCC1)Nc1ccc(Nc2nccc(NCC(O)c3ccccc3)n2)cc1 (configuration not stated),580 nM
11,c1ccc2[nH]c(-c3ccc(-c4ccc(CN5CCCCC5)cc4)s3)nc2c1,740 nM
12,c1cc(CNCCN2CCNCC2)cc(-c2ccc(-c3nc4ccccc4[nH]3)cc2)c1,1080 nM
13,Cc1c(OC(C)C)nc2ccccc2c1C(=O)N[C@H](c1cccc(F)c1)C1CC1,1090 nM
14,Cc1[nH]c(C)c(-c2ccc(OCc3ccccc3C(F)(F)F)nc2)c(=O)c1Br,20 nM
15,Fc1ccc2nc(-c3cccc(-c4ccc(CNCc5cnn(-c6ccccc6)n5)cc4)c3)[nH]c2c1,920 nM
16,Cc1ccc(Nc2nc(C)cc(NC3CC3)n2)cc1,1220 nM
17,CC(=O)c1c(Cc2ccccc2Cl)c[nH]c1C,850 nM
18,O=C(NCCNc1ccnc2cc(Cl)ccc12)c1ccccc1F,660 nM
19,CCCCCn1c(Sc2ccc(C#N)c([N+](=O)[O-])c2)nnc1-c1ccccc1,860 nM
20,O=C1c2ccc([N+](=O)[O-])cc2C(=O)N1c1ccc2[nH]ncc2c1,1150 nM
21,COC(=O)c1sc2ccccc2c1NC(=O)c1ccc(C)c(C)c1,1070 nM
22,C[C@@H]1CN(c2cnn(C/C=C/c3ccc(NC(=O)c4ccc(Cl)cc4)cc3)c(=O)c2Cl)C[C@H](C)N1,850 nM
